Consider five molecules from US20260166128A1, “HUMAN AMYLIN ANALOG, AND DERIVATIVE THEREOF AND USE THEREOF” (priority 2022, published 2026).

Series [1] can be described thus: Weight loss efficacy of derivatives in SD rats (Example 5). Format: in vivo, SD (Sprague Dawley) rats. The conditions noted are these: experimental group B, subcutaneous, 30 nmol/kg. The text has this:
SD (Sprague Dawley) rats weighing 200 g to 250 g were selected for this experimental study. Before the experiment, the rats arrived for at least 10 days to 14 days to adapt to the experimental environment. During this period, the rats were fed for two weeks in a reversed light/dark stage (meaning that the light was turned off during the day and turned on during the night) after arrival, and were fed separately in the first week of arrival to ensure accurate data and high test sensitivity, and the rats were free to obtain food and water during the whole adaptation period and experimental period. There were an experimental group [NT]5 and A6, and an experimental group B: B1, B2, B3, B4 and B5, with 5 to 8 rats in each treatment group of the derivative, and the rats in each group were subcutaneously administered with a derivative or a solvent by a dosage of 30 nmol/kg. The administration time of each group was recorded. After administration, the rats were put back into their cages in which the rats could get food and water. Food consumption and weight changes of the rats were recorded every 24 hours by online recording or manual recording. Weight and food intake changes of the SD rats in each group were as shown in FIG. 2A to FIG. 2D, Table 9 and Table 10.

A further series concerns the target T1, human amylin receptor (Homo sapiens, UniProt O60896+P30988).
T1 construct: host or cells: CHO-K1/Ga15/AMY3 cells, further stably transfected with a CRE-luciferase plasmid
T1 sequence (P30988 25-474): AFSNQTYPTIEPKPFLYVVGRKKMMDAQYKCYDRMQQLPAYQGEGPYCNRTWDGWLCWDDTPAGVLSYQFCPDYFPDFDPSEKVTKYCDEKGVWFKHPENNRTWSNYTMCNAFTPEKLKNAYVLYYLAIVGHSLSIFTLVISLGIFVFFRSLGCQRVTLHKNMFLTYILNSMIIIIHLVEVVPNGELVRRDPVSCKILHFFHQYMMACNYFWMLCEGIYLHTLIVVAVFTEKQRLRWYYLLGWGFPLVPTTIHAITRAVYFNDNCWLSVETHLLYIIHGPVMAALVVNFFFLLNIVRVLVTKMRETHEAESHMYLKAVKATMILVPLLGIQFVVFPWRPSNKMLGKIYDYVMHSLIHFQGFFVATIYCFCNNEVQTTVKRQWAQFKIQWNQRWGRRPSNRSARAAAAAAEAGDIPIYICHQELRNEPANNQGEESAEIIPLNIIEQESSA
T1 sequence (O60896 24-148 partner): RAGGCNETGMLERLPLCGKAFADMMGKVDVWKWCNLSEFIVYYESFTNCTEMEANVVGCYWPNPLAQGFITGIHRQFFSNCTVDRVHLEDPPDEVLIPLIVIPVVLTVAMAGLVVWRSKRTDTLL
Nature of the series: Luciferase assay of amylin derivatives in amylin receptor/CRE-luc CHO cell line. The settings on record: CHO-K1/Ga15/AMY3 CRE-luc cells, 24 hours incubation, F12 medium containing 10% FBS; read-out: EC50. Format: cell-based.

Series [2] is classed as physicochemical. Here is the method:
The penicillin bottle after covering was placed in a stability test box at 40° C. Before testing, a sample was centrifuged at 10,000 rpm and 4° C. for 3 minutes, and a supernatant was taken and added into a liquid-phase sample injection bottle. The sample was detected by the liquid phase method in Example 3.

Series [3] is described as follows: Freeze-thaw stability of derivatives (freeze-thaw yield by liquid chromatography). The class given is physicochemical. The conditions noted are these: for Dissolution property: appearance after dissolution at 0.2 mg/ml in 20 mM phosphate buffer solution (PB) (pH 7.0); for Freeze storage property: appearance after overnight storage at −20° C. and thawing to room temperature, 0.2 mg/ml in 20 mM PB (pH 7.0); for Freeze storage yield: concentration of polypeptide after freezing and thawing / concentration before, by liquid chromatography, −20° C. overnight. The method in brief:
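Lyophilised peptide derivative dissolved at 0.2 mg/ml in 20 mM phosphate buffer, pH 7.0, frozen overnight at −20° C, then thawed at room temperature. Peptide concentration before and after freeze-thaw measured by reversed-phase HPLC on centrifuged supernatant; yield = post-thaw/pre-thaw concentration.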

Numbered stars: 1 amine (or outer) side, 2 acyl side, 3 side chain; on linkers, the order of the positions; unused ones are H or OH. Bridge positions count the residues as written; N and C are the ends. Square brackets hold non-standard residues; d marks the D form. Side chains are listed from the residue outwards. Peptide text beside a SMILES is read from it. * marks the point of attachment. C20 diacid = O=C(O)CCCCCCCCCCCCCCCCCCC(=O)*; C18 diacid = O=C(O)CCCCCCCCCCCCCCCCC(=O)*; γGlu = O=C(O)[C@H](CCC(=O)[*:2])N[*:1]; Hyp = O=C(O)[C@@H]1C[C@@H](O)CN1; Aze = O=C(O)[C@@H]1CCN1; AEEA = NCCOCCOCC(=O)O

Experimental for human amylin receptor: The experiment was intended to detect the activity or efficacy of the amylin derivatives on a human amylin receptor in vitro by luciferase assay.
50 μL of growth medium (F12 medium containing 10% FBS) was added into each well of a white 96-well plate, and the stably transfected amylin/CRE-lue CHO cells were inoculated into the white 96-well plate at a density of about 20,000 cells/well for activity determination.

The EC50 is the concentration that produces a half-maximal response. As to `CC[C@H](C)[C@H](NC(=O)[C@@H]1CCCN1C(=O)[C@H](CCCCN)NC(=O)[C@H](CC(C)C)NC(=O)[C@H](CC(N)=O)NC(=O)[C@H](CC(N)=O)NC(=O)[C@H](CO)NC(=O)[C@H](CO)NC(=O)[C@H](Cc1c[nH]cn1)NC(=O)[C@H](CCCNC(=N)N)NC(=O)[C@H](CC(C)C)NC(=O)[C@H](Cc1ccccc1)NC(=O)[C@H](CC(=O)O)NC(=O)[C@H](C)NC(=O)[C@H](CC(C)C)NC(=O)[C@H](CCCNC(=N)N)NC(=O)[C@H](CCC(N)=O)NC(=O)[C@@H](NC(=O)[C@H](C)NC(=O)[C@@H]1CSSC[C@H](NC(=O)[C@H](CCCCN)NC(=O)CC[C@H](NC(=O)CCCCCCCCCCCCCCCCCCC(=O)O)C(=O)O)C(=O)N[C@@H](CC(N)=O)C(=O)N[C@@H]([C@@H](C)O)C(=O)N[C@@H](C)C(=O)N[C@@H]([C@@H](C)O)C(=O)N1)[C@@H](C)O)C(=O)N[C@@H](CC(C)C)C(=O)N1CCC[C@H]1C(=O)N1CCC[C@H]1C(=O)N[C@H](C(=O)N[C@@H](CC(N)=O)C(=O)N[C@H](C(=O)NCC(=O)N[C@@H](CO)C(=O)N[C@@H](CC(N)=O)C(=O)N[C@H](C(=O)N1CCC[C@H]1C(N)=O)[C@@H](C)O)C(C)C)[C@@H](C)O` [PD160] ({C20 diacid-γGlu}-KCNTATCATQRLADFLRHSSNNLKPILPPTNVGSNTP-NH2; disulfide 2-7 (inferred)), in series [1], the “Weight change rate at 48th hour” value is −7.87. The EC50 on human amylin receptor amounted to 0.035 nM.
Turning to `CC[C@H](C)[C@H](NC(=O)[C@@H]1CCCN1C(=O)[C@H](CCCNC(=N)N)NC(=O)[C@H](CC(C)C)NC(=O)[C@H](CC(N)=O)NC(=O)[C@H](CC(N)=O)NC(=O)[C@H](CO)NC(=O)[C@H](CO)NC(=O)[C@H](Cc1c[nH]cn1)NC(=O)[C@H](CCCNC(=N)N)NC(=O)[C@H](CC(C)C)NC(=O)[C@H](Cc1ccccc1)NC(=O)[C@H](CC(=O)O)NC(=O)[C@H](C)NC(=O)[C@H](CC(C)C)NC(=O)[C@H](CCCNC(=N)N)NC(=O)[C@H](CCC(N)=O)NC(=O)[C@@H](NC(=O)[C@H](C)NC(=O)[C@@H]1CSSC[C@H](NC(=O)[C@H](CCCCN)NC(=O)CC[C@H](NC(=O)CCCCCCCCCCCCCCCCCCC(=O)O)C(=O)O)C(=O)N[C@@H](CC(N)=O)C(=O)N[C@@H]([C@@H](C)O)C(=O)N[C@@H](C)C(=O)N[C@@H]([C@@H](C)O)C(=O)N1)[C@@H](C)O)C(=O)N[C@@H](CC(C)C)C(=O)N1CCC[C@H]1C(=O)N1CCC[C@H]1C(=O)N[C@H](C(=O)N[C@@H](CC(N)=O)C(=O)N[C@H](C(=O)NCC(=O)N[C@@H](CO)C(=O)N[C@@H](CC(N)=O)C(=O)N[C@H](C(=O)N1C[C@H](O)C[C@H]1C(N)=O)[C@@H](C)O)C(C)C)[C@@H](C)O` [PD158] ({C20 diacid-γGlu}-KCNTATCATQRLADFLRHSSNNLRPILPPTNVGSNT[Hyp]-NH2; disulfide 2-7 (inferred)), in series [1], the “Weight change rate at 48th hour” value is on record as −8.37. For the same molecule, the EC50 on human amylin receptor is 0.022 nM.
As to `CC[C@H](C)[C@H](NC(=O)[C@@H]1CCCN1C(=O)CNC(=O)[C@H](CC(C)C)NC(=O)[C@H](CC(N)=O)NC(=O)[C@H](CC(N)=O)NC(=O)[C@H](CO)NC(=O)[C@H](CO)NC(=O)[C@H](Cc1c[nH]cn1)NC(=O)[C@H](CCCNC(=N)N)NC(=O)[C@H](CC(C)C)NC(=O)[C@H](Cc1ccccc1)NC(=O)[C@H](CC(=O)O)NC(=O)[C@H](C)NC(=O)[C@H](CC(C)C)NC(=O)[C@H](CCCNC(=N)N)NC(=O)[C@H](CCC(N)=O)NC(=O)[C@@H](NC(=O)[C@H](C)NC(=O)[C@@H]1CSSC[C@H](NC(=O)[C@@H](N)CCCCNC(=O)CC[C@H](NC(=O)CCCCCCCCCCCCCCCCCCC(=O)O)C(=O)O)C(=O)N[C@@H](CC(N)=O)C(=O)N[C@@H]([C@@H](C)O)C(=O)N[C@@H](C)C(=O)N[C@@H]([C@@H](C)O)C(=O)N1)[C@@H](C)O)C(=O)N[C@@H](CC(C)C)C(=O)N1CCC[C@H]1C(=O)N1CCC[C@H]1C(=O)N[C@H](C(=O)N[C@@H](CC(N)=O)C(=O)N[C@H](C(=O)NCC(=O)N[C@@H](CO)C(=O)N[C@@H](CC(N)=O)C(=O)N[C@H](C(=O)N1C[C@H](O)C[C@H]1C(N)=O)[C@@H](C)O)C(C)C)[C@@H](C)O` [PD070] (H-K([γGlu-C20 diacid])CNTATCATQRLADFLRHSSNNLGPILPPTNVGSNT[Hyp]-NH2; disulfide 2-7), in series [2], the thermal stability result is reported as “extremely low decrease percentage of protein concentration”. In addition, the EC50 at human amylin receptor came to 0.038 nM.
`CC[C@H](C)[C@H](NC(=O)[C@@H]1CCCN1C(=O)CNC(=O)[C@H](CC(C)C)NC(=O)[C@H](CC(N)=O)NC(=O)[C@H](CC(N)=O)NC(=O)[C@H](CO)NC(=O)[C@H](CO)NC(=O)[C@H](Cc1c[nH]cn1)NC(=O)[C@H](CCCNC(=N)N)NC(=O)[C@H](CC(C)C)NC(=O)[C@H](Cc1ccccc1)NC(=O)[C@H](CC(=O)O)NC(=O)[C@H](C)NC(=O)[C@H](CC(C)C)NC(=O)[C@H](CCCNC(=N)N)NC(=O)[C@H](CCC(N)=O)NC(=O)[C@@H](NC(=O)[C@H](C)NC(=O)[C@@H]1CSSC[C@H](NC(=O)[C@H](CCCCN)NC(=O)COCCOCCNC(=O)CC[C@H](NC(=O)CCCCCCCCCCCCCCCCC(=O)O)C(=O)O)C(=O)N[C@@H](CC(N)=O)C(=O)N[C@@H]([C@@H](C)O)C(=O)N[C@@H](C)C(=O)N[C@@H]([C@@H](C)O)C(=O)N1)[C@@H](C)O)C(=O)N[C@@H](CC(C)C)C(=O)N1CCC[C@H]1C(=O)N1CCC[C@H]1C(=O)N[C@H](C(=O)N[C@@H](CC(N)=O)C(=O)N[C@H](C(=O)NCC(=O)N[C@@H](CO)C(=O)N[C@@H](CC(N)=O)C(=O)N[C@H](C(=O)N1C[C@H](O)C[C@H]1C(N)=O)[C@@H](C)O)C(C)C)[C@@H](C)O` [PD125] ({C18 diacid-γGlu-AEEA}-KCNTATCATQRLADFLRHSSNNLGPILPPTNVGSNT[Hyp]-NH2; disulfide 2-7 (inferred)): in series [3], the Dissolution property entry is “Clear”, the Freeze storage property entry was “Clear” and the Freeze storage yield is given as 95.59%. Moreover, the concentration for a half-maximal effect (EC50) on human amylin receptor is 0.01 nM.
Take `CC[C@H](C)[C@H](NC(=O)[C@@H]1CCCN1C(=O)[C@H](CCCCNC(=O)CC[C@H](NC(=O)CCCCCCCCCCCCCCCCCCC(=O)O)C(=O)O)NC(=O)[C@H](CC(C)C)NC(=O)[C@H](CC(N)=O)NC(=O)[C@H](CC(N)=O)NC(=O)[C@H](CO)NC(=O)[C@H](CO)NC(=O)[C@H](Cc1c[nH]cn1)NC(=O)[C@H](CCCNC(=N)N)NC(=O)[C@H](CC(C)C)NC(=O)[C@H](Cc1ccccc1)NC(=O)[C@H](CC(=O)O)NC(=O)[C@H](C)NC(=O)[C@H](CC(C)C)NC(=O)[C@H](CCCNC(=N)N)NC(=O)[C@H](CCC(N)=O)NC(=O)[C@@H](NC(=O)[C@H](C)NC(=O)[C@@H]1CSSC[C@H](NC(=O)[C@@H](N)CCCNC(=N)N)C(=O)N[C@@H](CC(N)=O)C(=O)N[C@@H]([C@@H](C)O)C(=O)N[C@@H](C)C(=O)N[C@@H]([C@@H](C)O)C(=O)N1)[C@@H](C)O)C(=O)N[C@@H](CC(C)C)C(=O)N1CCC[C@H]1C(=O)N1CCC[C@H]1C(=O)N[C@H](C(=O)N[C@@H](CC(N)=O)C(=O)N[C@H](C(=O)NCC(=O)N[C@@H](CO)C(=O)N[C@@H](CC(N)=O)C(=O)N[C@H](C(=O)N1CC[C@H]1C(N)=O)[C@@H](C)O)C(C)C)[C@@H](C)O` [PD060] (H-RCNTATCATQRLADFLRHSSNNLK([γGlu-C20 diacid])PILPPTNVGSNT[Aze]-NH2; disulfide 2-7 (inferred)): in series [3], the Dissolution property entry is listed as “Clear”, the Freeze storage property entry is reported as “Clear” and the Freeze storage yield came out at 104.35%. The EC50 at human amylin receptor came to 0.246 nM.
